{
  "source": "ChEMBL document CHEMBL4715764",
  "about": "“ArgTX-636, a polyamine isolated from spider venom: A novel class of melanogenesis inhibitors” (Bioorg Med Chem, 2016)",
  "key": {"Mushroom tyrosinase [1]": {"molecular_target": "T1, Mushroom tyrosinase (Agaricus bisporus, UniProt O42713+Q00024+C7FF04+C7FF05)", "description": "Inhibition of diphenolase activity of mushroom tyrosinase using L-DOPA substrate"}, "B16-F10 [2]": {"system": "B16-F10", "experiment": "Reduction in alpha-MSH-induced TRP-1 expression in mouse B16-F10 cells at 0.041 uM incubated for 48 hrs by Western blot analysis", "format": "functional, cell-based"}, "B16-F10 [3]": {"system": "B16-F10", "experiment": "Cytotoxicity against mouse B16-F10 cells assessed as reduction in cell viability at 42.1 uM incubated for 6 hrs by MTT assay", "format": "cell-based", "settings": "b16-f10, 6 h"}, "B16-F10 [4]": {"system": "B16-F10", "experiment": "Reduction in alpha-MSH-induced tyrosinase expression in mouse B16-F10 cells at 0.041 uM incubated for 48 hrs by Western blot analysis", "format": "functional, cell-based"}, "[5]": {"molecular_target": "T2, Mushroom tyrosinase (Agaricus bisporus) (UniProt O42713+Q00024+C7FF04+C7FF05)", "experiment": "(§1) Inhibition of mushroom tyrosinase using L-DOPA as substrate measured for 15 mins by UV-vis spectrophotometry"}, "Mushroom tyrosinase [6]": {"molecular_target": "T1, Mushroom tyrosinase", "experiment": "as §1"}, "Mushroom tyrosinase [7]": {"molecular_target": "T1, Mushroom tyrosinase", "experiment": "Mixed type inhibition of mushroom tyrosinase using L-DOPA as substrate assessed as inhibitory constant measured for 15 mins by UV-vis spectrophotometry based Line-weaver Burk plot analysis"}, "Mushroom tyrosinase [8]": {"molecular_target": "T1, Mushroom tyrosinase", "experiment": "Mixed type inhibition of mushroom tyrosinase using L-DOPA as substrate assessed as enzyme-substrate complex constant measured for 15 mins by UV-vis spectrophotometry based Line-weaver Burk plot analysis"}, "[9]": {"molecular_target": "T3, Tyrosinase (Mus musculus) (UniProt P11344)", "T3 sequence (whole entry)": "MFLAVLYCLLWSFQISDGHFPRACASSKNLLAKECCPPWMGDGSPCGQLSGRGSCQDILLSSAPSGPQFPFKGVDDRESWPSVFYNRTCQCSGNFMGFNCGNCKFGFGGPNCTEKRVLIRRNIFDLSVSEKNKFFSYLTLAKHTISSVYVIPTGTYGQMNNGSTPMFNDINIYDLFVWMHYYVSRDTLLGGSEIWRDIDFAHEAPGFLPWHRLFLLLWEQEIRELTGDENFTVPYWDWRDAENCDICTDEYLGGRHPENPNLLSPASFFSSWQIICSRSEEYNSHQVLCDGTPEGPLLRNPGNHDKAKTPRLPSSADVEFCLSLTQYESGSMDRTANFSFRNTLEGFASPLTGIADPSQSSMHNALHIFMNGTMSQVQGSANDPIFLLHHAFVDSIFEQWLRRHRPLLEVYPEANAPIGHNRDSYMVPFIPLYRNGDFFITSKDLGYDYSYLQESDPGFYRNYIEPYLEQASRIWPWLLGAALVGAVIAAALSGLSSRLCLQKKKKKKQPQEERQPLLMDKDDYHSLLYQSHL", "experiment": "Inhibition of tyrosinase in mouse B16-F10 cells at 0.421 uM using L-DOPA as substrate incubated for 30 mins followed by substrate addition and measured after 40 mins", "format": "cell-based", "settings": "time 70.0 min"}, "B16-F10 [10]": {"system": "B16-F10", "experiment": "Inhibition of melanin production in mouse B16-F10 cells incubated for 48 hrs", "format": "functional, cell-based", "settings": "dose 0-0.0421 µM"}, "[11]": {"molecular_target": "T2, Mushroom tyrosinase (Agaricus bisporus)", "experiment": "(§2) Inhibition of mushroom tyrosinase using DHICA as substrate measured for 15 mins by UV-vis spectrophotometry"}, "Mushroom tyrosinase [12]": {"molecular_target": "T1, Mushroom tyrosinase", "experiment": "as §2"}, "M4Beu cell line": {"system": "M4Beu cell line", "experiment": "Cytotoxicity against human M4Be cells assessed as reduction in cell viability at 42.1 uM incubated for 6 hrs by MTT assay", "format": "cell-based"}},
  "note": "Calls of active or inactive are those of the source. The calls are words filed in the database; no cut-off is given here.",
  "data": [
    {"compound": "S=C1NCC(c2ccccc2)O1", "note": "(configuration not stated)", "values": [
      {"measurement": "IC50", "setting": "Mushroom tyrosinase [1]", "result": 42, "unit": "µM"}
    ]},
    {"compound": "CC1(C)S[C@@H]2[C@H](NC(=O)[C@H](N)c3ccc(O)cc3)C(=O)N2[C@H]1C(=O)O", "note": "[AMOXICILLIN]", "values": [
      {"measurement": "IC50", "setting": "Mushroom tyrosinase [1]", "result": 9000, "unit": "µM"}
    ]},
    {"compound": "N=C(N)NCCC[C@H](N)C(=O)NCCCNCCCNCCCCCNC(=O)[C@H](CC(N)=O)NC(=O)Cc1ccc(O)cc1O", "values": [
      {"measurement": "inhibition", "setting": "B16-F10 [2]", "result": "Active"},
      {"measurement": "Activity", "setting": "B16-F10 [3]", "result": "Non-Toxic"},
      {"measurement": "inhibition", "setting": "B16-F10 [4]", "result": "inactive"},
      {"measurement": "inhibition", "setting": "[5]", "result": "Dose-dependent effect"},
      {"measurement": "IC50", "setting": "Mushroom tyrosinase [6]", "result": 8.34, "unit": "µM"},
      {"measurement": "Ki", "setting": "Mushroom tyrosinase [7]", "result": 10.77, "unit": "µM"},
      {"measurement": "Ki", "setting": "Mushroom tyrosinase [8]", "result": 20.36, "unit": "µM"},
      {"measurement": "inhibition", "setting": "[9]", "result": "Active"},
      {"measurement": "inhibition", "setting": "B16-F10 [10]", "result": "Dose-dependent effect"},
      {"measurement": "inhibition", "setting": "[11]", "result": "Dose-dependent effect"},
      {"measurement": "IC50", "setting": "Mushroom tyrosinase [12]", "result": 48.22, "unit": "µM"},
      {"measurement": "Activity", "setting": "M4Beu cell line", "result": "Non-Toxic"}
    ]},
    {"compound": "OC1COC(O)C(O)C1O", "note": "(racemic)", "values": [
      {"measurement": "IC50", "setting": "Mushroom tyrosinase [1]", "result": 100, "unit": "µM"}
    ]},
    {"compound": "O=C(O)/C=C/c1ccc(Cn2ccnc2)cc1", "note": "[OZAGREL]", "values": [
      {"measurement": "IC50", "setting": "Mushroom tyrosinase [1]", "result": 3450, "unit": "µM"}
    ]},
    {"compound": "CC1(C)C=Cc2c(cc3c(c2O)C(=O)CC(c2ccc(O)cc2O)O3)O1", "note": "(configuration not stated) [DALENIN]", "values": [
      {"measurement": "IC50", "setting": "Mushroom tyrosinase [1]", "result": 18.61, "unit": "µM"}
    ]}
  ]
}
